{"source": "paper PMC6346587", "about": "“Glucose 6-phosphate dehydrogenase 6-phosphogluconolactonase: characterization of the Plasmodium vivax enzyme and inhibitor studies” (Malaria Journal, 2019)", "origin": "cited, not measured here", "key": {"hG6PD": {"biological_target": "T1, hG6PD (Homo sapiens, UniProt P11413)", "T1 construct": "made in house", "T1 sequence (P11413 whole entry)": "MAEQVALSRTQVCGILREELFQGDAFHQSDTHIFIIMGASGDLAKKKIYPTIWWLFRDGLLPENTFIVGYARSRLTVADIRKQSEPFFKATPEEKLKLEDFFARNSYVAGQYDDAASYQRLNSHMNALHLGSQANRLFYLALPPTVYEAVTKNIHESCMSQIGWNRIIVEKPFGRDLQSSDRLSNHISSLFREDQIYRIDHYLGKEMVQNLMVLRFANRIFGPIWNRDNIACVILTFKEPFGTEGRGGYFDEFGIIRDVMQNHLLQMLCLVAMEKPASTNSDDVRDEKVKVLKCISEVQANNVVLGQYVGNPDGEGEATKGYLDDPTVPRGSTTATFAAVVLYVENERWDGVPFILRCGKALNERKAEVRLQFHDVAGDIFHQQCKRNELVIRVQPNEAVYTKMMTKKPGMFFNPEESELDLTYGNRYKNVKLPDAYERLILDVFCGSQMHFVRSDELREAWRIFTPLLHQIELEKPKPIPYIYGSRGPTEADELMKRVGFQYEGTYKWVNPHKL", "details": "ML304; read-out: IC50 on human G6PD; cited from earlier work"}, "Plasmodium gametocytes": {"tested_on": "Plasmodium gametocytes", "details": "cited from earlier work"}}, "note": "Where “and” joins values, the source holds several entries; their conditions need not be identical. Equal values may be shown once.", "data": [{"smiles": "CCN1CCC[C@@H]1CNC(=O)c1ccc2c(c1)NC(=O)c1cccc(C)c1S2", "note": "[ML304]", "values": [{"measurement": "IC50", "setting": "hG6PD", "result": "80 µM and > 80 µM"}, {"measurement": "Effect on viability of Plasmodium gametocytes", "setting": "Plasmodium gametocytes", "result": "strongly impair the viability"}, {"measurement": "Interaction with methylene blue on late stage gametocytes", "setting": "Plasmodium gametocytes", "result": "synergistic effects"}]}]}
